Test results as given in article PMC6270171, “In Vitro and In Vivo Antiangiogenic Activity of Caged Polyprenylated Xanthones Isolated from Garcinia hanburyi Hook. f” (Molecules, 2013).
Like-named read-outs stand apart in the source and are kept apart here.

Key:
HepG-2 = assay: MTT cytotoxicity assay, HepG-2; type: cell-based; settings: Homo sapiens
Method: (§1) The xanthones 1–11 were tested for cytotoxicity against HeLa, A549, HCT-116, and HepG-2 human cancer cell lines and inhibition on the proliferation of the HUVEC cell line by using the MTT assay according to the described protocols.

zebrafish embryos [1] = assay: Death rates of treated zebrafish embryos; type: in vivo, zebrafish (Danio rerio); settings: eight embryos per well, control 0
Method: (§2) A transgenic zebrafish line, Tg(flk1:EGFP), with the endothelial- specific flk1 promoter directing enhanced green fluorescent protein (EGFP) expression in all endothelial cells of the vasculature was used. Adult zebrafish were maintained at 28.5 °C in a recirculating aquaculture system. Zebrafish embryos were generated by natural pair-wise mating, collected in the morning and raised at 28.5 °C in embryo water (0.2 g/L of Instant Ocean Salt in distilled water). At 6 h post-fertilization (hpf), the embryos were sorted for viability and developmental stage (shield stage). The embryos were firstly placed in 24-well plates in 1 mL of embryo water with eight embryos per well. Then, the xanthones, at various concentrations, were added to embryo water of each well from the shield stage (about 6 h). Because the fish embryo receives nourishment from an attached yolk ball for the duration of the experiment, no additional maintenance was required during the duration of the experiments. After treatment with the drugs for 24 h, the embryos were anesthetized with 0.05% 2-phenoxyethanol in embryo water. One to three embryos were placed on carry sheet glass and each embryo was examined for the presence of ectopic vessels in the subintestinal vessel plexus (SIV) as an indication of antiangiogenic effect. Photographs were taken under a fluorescence microscope.

A549 = assay: MTT cytotoxicity assay, A549; type: cell-based; settings: Homo sapiens
Method: as §1

HCT-116 = assay: MTT cytotoxicity assay, HCT-116; type: cell-based; settings: Homo sapiens
Method: as §1

HUVEC cell line = assay: MTT assay, inhibition of proliferation of HUVEC cell line; type: cell-based; settings: Homo sapiens, read-out: IC50 HUVEC
Method: as §1

HeLa = assay: MTT cytotoxicity assay, HeLa; type: cell-based; settings: Homo sapiens, read-out: IC50 HeLa
Method: as §1

zebrafish embryos [2] = assay: Heart rates of treated zebrafish embryos; type: in vivo, zebrafish (Danio rerio)
HUVEC = HUVEC wound migration assay; type: cell-based, human; settings: 0.5 μM, 24 h
Method: The wound migration assay was performed as previously described. HUVECs were seeded at a plating density of 2 × 10^5 per well in 6-well plates which had been coated with 1% gelatin, cells grown in DMEM medium with 10% FBS overnight. After reaching 100% confluence, the cells were then gently scraped with a plastic tip to produce a wound area. After wounding cells were incubated with fresh DMEM medium with xanthones 1, 3, 7 and 9 at a concentration of 0.5 μM, the migration and cell movement throughout the wound area was examined after 24 h.

[3] = tested on: zebrafish embryos Tg(flk1:EGFP); assay: Antiangiogenic activity assay on blood vessel formation in zebrafish embryos; type: in vivo, zebrafish (Danio rerio)
Method: as §2

[4] = HepG2, MTT assay, 50% inhibition of cell growth, read-out: IC50 HepG-2
[5] = A549, MTT assay, 50% inhibition of cell growth, read-out: IC50 A549
[6] = HCT-116, MTT assay, 50% inhibition of cell growth, read-out: IC50 HCT-116
[7] = MTT assay, 50% inhibition of cell growth
[8] = Tg(flk1:EGFP), zebrafish, in vivo, 24 h, 8 μM
[9] = Tg(flk1:EGFP), zebrafish, in vivo, 24 h, 16 μM
[10] = Tg(flk1:EGFP), zebrafish, in vivo, 24 h, 32 μM
[11] = 1 μM, zebrafish embryos, control 21 per 10 s
[12] = 2 μM, zebrafish embryos, control 21 per 10 s
[13] = 4 μM, zebrafish embryos, control 21 per 10 s
[14] = Tg(flk1:EGFP), zebrafish, in vivo, 24 h, 2 μM
[15] = Tg(flk1:EGFP), zebrafish, in vivo, 24 h, 4 μM

| Structure (SMILES) | IC50 (HepG-2; [4]) | Death Rate (zebrafish embryos [1]; 8 μM) | IC50 (A549; [5]) | IC50 (HCT-116; [6]) | IC50 (HUVEC cell line; [7]) | IC50 (HeLa; [7]) | Heart Rate (zebrafish embryos [2]; [8]) | Heart Rate (zebrafish embryos [2]; [9]) | Heart Rate (zebrafish embryos [2]; [10]) | Death Rate (zebrafish embryos [1]; 1 μM) | Death Rate (zebrafish embryos [1]; 2 μM) | Death Rate (zebrafish embryos [1]; 4 μM) | Heart Rate (zebrafish embryos [2]; [11]) | Heart Rate (zebrafish embryos [2]; [12]) | Heart Rate (zebrafish embryos [2]; [13]) | Heart Rate (zebrafish embryos [2]; [14]) | Heart Rate (zebrafish embryos [2]; [15]) | also measured |
| --- | --- | --- | --- | --- | --- | --- | --- | --- | --- | --- | --- | --- | --- | --- | --- | --- | --- | --- |
| CC(C)=CCC/C(C)=C/Cc1c(O)c(CC=C(C)C)c2c(c1O)C(=O)C1=C[C@@H]3C[C@H]4C(C)(C)O[C@@](C/C=C(\C)C=O)(C3=O)[C@@]14O2 [Xanthone 6, isogambogenin] | 2.44 µM | 0 | 4.88 µM | 1.47 µM | 2.12 µM | 4.07 µM | 17 per 10 s | 14 per 10 s | 8 per 10 s | – | – | – | – | – | – | – | – | Death Rate (zebrafish embryos [1]; 16 μM): 1/8; Death Rate (zebrafish embryos [1]; 32 μM): 4/8 |
| CC(C)=CCC/C(C)=C/Cc1c(O)c(CC=C(C)C)c2c(c1O)C(=O)C1=C[C@@H]3C[C@H]4C(C)(C)O[C@@](C/C=C(/C)C(=O)O)(C3=O)[C@@]14O2 [Xanthone 2, gambogenic acid] | 6.35 µM | – | 4.76 µM | 4.76 µM | 4.12 µM | 11.5 µM | – | – | – | 0 | 0 | 8/8 | 21 per 10 s | 18 per 10 s | 0 per 10 s | – | – | – |
| CC(C)=CCCC1(C)C=Cc2c(O)c3c(c(CC=C(C)C)c2O1)O[C@]12C(=C[C@@H]4C[C@H]1C(C)(C)O[C@@]2(C/C=C(\C)C(=O)O)C4=O)C3=O (stereo partly drawn) [Xanthone 8, isogambogic acid] | 6.37 µM | 6/8 | 2.86 µM | 1.59 µM | 0.91 µM | 4.77 µM | 6 per 10 s | – | – | – | 0 | 1/8 | – | – | – | 17 per 10 s | 13 per 10 s | – |
| CC(C)=CCC/C(C)=C/Cc1c(O)c(CC=C(C)C)c2c(c1O)C(=O)C1=C[C@@H]3C[C@H]4C(C)(C)O[C@@](CC=C(C)C)(C3=O)[C@@]14O2 [Xanthone 11, desoxygambogenin] | – | 0 | – | – | – | – | – | – | – | 0 | 0 | 0 | 21 per 10 s | 21 per 10 s | 21 per 10 s | – | – | IC50 (HepG-2; HepG2, read-out: IC50 HepG-2): 1.15 µM; IC50 (A549; A549, read-out: IC50 A549): 1.8 µM; IC50 (HCT-116; HCT-116, read-out: IC50 HCT-116): 1.35 µM; IC50 (HUVEC cell line): 1.6 µM; IC50 (HeLa): 2.95 µM; Heart Rate (zebrafish embryos [2]; 8 μM, zebrafish embryos, control 21 per 10 s): 20 per 10 s |
| CC(C)=CCC/C(C)=C/Cc1c(O)c(CC=C(C)C)c2c(c1O)C(=O)C1=C[C@@H]3C[C@H]4C(C)(C)O[C@@](C/C=C(/C)C=O)(C3=O)[C@@]14O2 [Xanthone 7, gambogenin] | 6.51 µM | 0 | 4.88 µM | 1.3 µM | 1.04 µM | 3.26 µM | 6 per 10 s | 6 per 10 s | 5 per 10 s | – | – | – | – | – | – | – | – | Inhibition of the migration of HUVEC (HUVEC): remarkable inhibition; Antiangiogenic activity to zebrafish embryos ([3]; concentrations varying from 1 μM to 16 μM): displayed antiangiogenic activity; Concentration with inhibitory effect on ISV formation (Figure 2) ([3]; zebrafish embryos, 24 h, effects of 3, 7, 9 comparable to GA): 32 µM |
| CC(C)=CCC/C(C)=C/Cc1c(O)c2c(c3c1O[C@@H](C(C)(C)O)C3)O[C@]13C(=C[C@@H]4C[C@H]1C(C)(C)O[C@@]3(C/C=C(/C)C(=O)O)C4=O)C2=O [Xanthone 4, gambogenific acid] | 10.2 µM | 0 | 11.3 µM | 4.49 µM | 2.48 µM | 7.58 µM | 13 per 10 s | – | – | – | 0 | 0 | – | – | – | 21 per 10 s | 17 per 10 s | – |
